The record followed here is paper PMC12652222 (International Journal of Molecular Sciences, 2025).

In one assay the test system is protein denaturation. Kind of assay: Protein denaturation inhibition (anti-arthritic). It counts as biochemical. Also noted: concentration or dose not given beside the values. Conditions: mean ± SE, n = 3. The method, then: (§1) Anti-arthritic activity was evaluated using diclofenac sodium as the reference drug. The inhibition percentage and IC50 were determined for protein denaturation and the proteinase enzyme.

A short description of assay [1]: Total antioxidant capacity (TAC). It counts as biochemical. Conditions: mean ± SE, n = 3. The method, then: (§2) The antioxidant activity was assessed using the iron reducing power (IRP) and the total antioxidant capacity (TAC). Ascorbic acid served as a standard to calculate the inhibition percentages (%) and the median inhibitory concentration (IC50) of each tested compound against the following radicals: nitric oxide (NO), hydroxyl (OH), hydrogen peroxide (H2O2), ABTS [79], and DPPH [80].

The target in the next assay is T1, α-amylase (Homo sapiens, UniProt P04746).
T1 sequence (P04746 16-511): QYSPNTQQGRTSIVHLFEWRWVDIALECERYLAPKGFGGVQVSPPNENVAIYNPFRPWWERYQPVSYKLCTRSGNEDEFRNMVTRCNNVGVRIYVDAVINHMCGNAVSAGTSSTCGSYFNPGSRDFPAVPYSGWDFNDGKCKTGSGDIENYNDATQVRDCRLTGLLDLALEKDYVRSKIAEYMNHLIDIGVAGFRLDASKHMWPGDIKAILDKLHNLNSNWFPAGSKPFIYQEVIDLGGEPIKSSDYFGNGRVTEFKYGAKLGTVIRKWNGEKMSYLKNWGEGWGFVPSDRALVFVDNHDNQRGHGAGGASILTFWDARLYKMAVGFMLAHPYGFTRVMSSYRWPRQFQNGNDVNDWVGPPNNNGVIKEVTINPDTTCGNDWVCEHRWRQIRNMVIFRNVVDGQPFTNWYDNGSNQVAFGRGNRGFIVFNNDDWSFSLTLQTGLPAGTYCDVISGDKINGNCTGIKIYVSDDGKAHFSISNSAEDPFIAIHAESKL
The assay is described as follows: α-Amylase inhibition. It counts as biochemical. To be noted: for inhibition at 20 µg/mL: read-out: α-Amylase Inhibition (%). As to the method: (§3) The IC50 and inhibition percentages (Inhib. %) of the enzymes α-amylase and α-glucosidase were calculated.

Another assay addresses α-glucosidase. Kind of assay: α-Glucosidase inhibition. It counts as biochemical. As to the method:
as §3

A short description of assay [2]: Hydrogen peroxide (H2O2) scavenging. Conditions: mean ± SE, n = 3; for H2O2 (%): inhibition % at 20 µg/mL. It counts as biochemical. The method, then: as §2
A further assay is described as follows: ABTS radical scavenging. It counts as biochemical. Conditions: mean ± SE, n = 3; for ABTS (%): inhibition % at 20 µg/mL. The method, then:
as §2

Assay [3] in a line: Nitric oxide (NO) radical scavenging. It counts as biochemical. Conditions: mean ± SE, n = 3; for NO (%): inhibition % at 20 µg/mL. The method, then: as §2
A short description of assay [4]: Hydroxyl (OH) radical scavenging. To be noted: mean ± SE, n = 3; for OH (%): inhibition % at 20 µg/mL. It counts as biochemical. As to the method: as §2
The target in assay [5] is acetylcholinesterase (AChE) (Homo sapiens, UniProt P22303). Kind of assay: biochemical. To be noted: mean ± SE, n = 3; for IC50: read-out: AChE IC50 (µg/mL) (converted). The method, then:
The inhibition percentage and IC50 of the acetylcholinesterase (AChE) enzyme were measured using the Ellman method.

Another assay has as its target proteinase enzyme. Kind of assay: Proteinase inhibition (anti-arthritic). Also noted: Proteinase Inhibition (%): concentration or dose not given beside the values. To be noted: mean ± SE, n = 3. It counts as biochemical. As to the method: as §1
The nature of assay [6]: Iron-reducing power (IRP). It counts as biochemical. Conditions: mean ± SE, n = 3. As to the method:
as §2

A further assay can be described thus: DPPH radical scavenging. It counts as biochemical. Conditions: mean ± SE, n = 3; for DPPH (%): inhibition % at 20 µg/mL. The method, then:
as §2
On the technique in general: The DPPH test is a chemical assay of radical scavenging.

Several values for one entry are separate records, joined by “and”; a condition that tells them apart may be missing. Identical values can stand only once.

As a reminder, the inhibition is the percentage by which the read-out fell short of the control.

Chain of acetylcholinesterase (AChE) (P22303 32-614, species assumed): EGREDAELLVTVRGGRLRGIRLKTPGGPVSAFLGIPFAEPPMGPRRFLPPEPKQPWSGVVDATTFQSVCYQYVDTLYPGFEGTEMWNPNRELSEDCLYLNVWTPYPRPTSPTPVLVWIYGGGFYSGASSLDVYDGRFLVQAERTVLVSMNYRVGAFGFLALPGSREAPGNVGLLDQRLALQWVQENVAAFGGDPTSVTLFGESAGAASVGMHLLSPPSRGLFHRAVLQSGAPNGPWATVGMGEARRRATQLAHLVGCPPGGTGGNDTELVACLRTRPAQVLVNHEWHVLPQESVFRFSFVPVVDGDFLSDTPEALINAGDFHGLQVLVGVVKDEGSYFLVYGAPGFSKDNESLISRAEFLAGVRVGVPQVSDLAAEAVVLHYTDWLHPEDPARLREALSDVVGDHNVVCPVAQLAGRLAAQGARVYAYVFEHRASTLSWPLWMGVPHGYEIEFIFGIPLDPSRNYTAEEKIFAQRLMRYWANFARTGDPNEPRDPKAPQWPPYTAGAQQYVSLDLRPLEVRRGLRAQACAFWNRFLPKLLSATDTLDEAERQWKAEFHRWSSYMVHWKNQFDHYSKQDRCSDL

Regarding `O=c1/c(=C\[C@@H](O)[C@@H](O)[C@H](O)[C@H](O)CO)sc2nc3sc4c(c3c(=O)n12)CCCC4` [8b, (E)-2-((2R,3R,4R,5R)-2,3,4,5,6-pentahydroxyhexylidene)-6,7,8,9-tetrahydro-5H-benzo-[4,5]thieno [2,3-d]thiazolo [3,2-a]pyrimidine-3,5(2H)-dione], the “Protein Denaturation Inhibition (%)” value in the assay on protein denaturation amounted to 11.80 ± 0.19%. The “TAC (mg Gallic Acid/g)” value in assay [1] was 68.01 mg Gallic Acid/g and 68.01 ± 0.78 mg Gallic Acid/g. At α-amylase, the IC50 is 15.4 µM and the inhibition at 20 µg/mL turned out to be 61.5 ± 0.74%. Besides, at α-glucosidase, the “α-Glucosidase IC50” value was determined as 3.85 ± 0.05 µg/mL. In the assay with α-glucosidase (at 20 µg/mL), the “inhibition of α-glucosidase” value came out at 54.78 ± 0.74%. Besides, the “H2O2 scavenging IC50” value in [2] was found to be 10.28 ± 0.12 µg/mL. The “ABTS radical scavenging IC50” value in “ABTS radical scavenging” turned out to be 4.78 ± 0.05 µg/mL. The “NO radical scavenging IC50” value in [3] worked out at 6.88 ± 0.16 µg/mL. In addition, the “OH radical scavenging IC50” value in [4] is recorded as 9.24 ± 0.05 µg/mL. In addition, in assay [5], the inhibition at 20 µg/mL stood at 5.19 ± 0.16% and the IC50 is 126 µM. Also, at proteinase enzyme, the “Proteinase IC50” value was 65.93 ± 2.02 µg/mL and the “Proteinase Inhibition (%)” value amounted to 7.63 ± 0.19%. The “IRP” value in assay [6] is 60.86 µg/mL and 60.86 ± 0.78 µg/mL. The “DPPH radical scavenging IC50” value in the assay “DPPH radical scavenging” is 6.01 ± 0.12 µg/mL.

On to `O=c1/c(=C\[C@@H](O)[C@@H](O)[C@H](O)[C@H](O)CO)sc2nc3sc4c(c3c(=O)n12)CCC4` [7b, (E)-2-((2R,3R,4R,5R)-2,3,4,5,6-pentahydroxyhexylidene)-7,8-dihydro-5H,6H-cyclopenta [4,5]thieno [2,3-d]thiazolo [3,2-a]pyrimidine-3,5(2H)-dione], for which the “Protein Denaturation Inhibition (%)” value in the assay with protein denaturation turned out to be 15.06 ± 0.20%. In addition, the “TAC (mg Gallic Acid/g)” value in [1] was found to be 21.59 ± 0.25 mg Gallic Acid/g. Further, the inhibition at 20 µg/mL on α-amylase amounted to 17.3 ± 0.24%. The “α-Glucosidase IC50” value at α-glucosidase was determined as 19.96 ± 0.34 µg/mL. In addition, in [2], the “H2O2 (%)” value is given as 12.12 ± 0.24% and the “H2O2 scavenging IC50” value worked out at 48.67 ± 0.85 µg/mL. For the same compound, in “ABTS radical scavenging”, the “ABTS (%)” value is reported as 21.34 ± 0.25% and the “ABTS radical scavenging IC50” value stood at 15.17 ± 0.15 µg/mL. Further, in [3], the “NO (%)” value amounted to 12.44 ± 0.25% and the “NO radical scavenging IC50” value is 32.58 ± 0.96 µg/mL. In assay [4], the “OH (%)” value is 10.82 ± 0.21% and the “OH radical scavenging IC50” value is 43.75 ± 0.52 µg/mL. Moreover, in [5], the inhibition at 20 µg/mL was determined as 5.14 ± 0.16% and the IC50 is 131 µM. Besides, on proteinase enzyme, the “Proteinase IC50” value stood at 42.61 ± 0.37 µg/mL and the “Proteinase Inhibition (%)” value came to 10.89 ± 0.20%. Also, the “IRP” value in [6] was determined as 14.44 ± 0.25 µg/mL. Besides, in “DPPH radical scavenging”, the “DPPH (%)” value is 18.19 ± 0.25% and the “DPPH radical scavenging IC50” value was 21.36 ± 0.44 µg/mL.

As for `O=c1/c(=C\[C@@H](O)[C@H](O)[C@H](O)CO)sc2nc3sc4c(c3c(=O)n12)CCC4` [7e, (E)-2-((2R,3S,4R)-2,3,4,5-tetrahydroxypentylidene)-7,8-dihydro-5H,6H-cyclopenta [4,5]thieno [2,3-d]thiazolo [3,2-a]-pyrimidine-3,5(2H)-dione], the “Protein Denaturation Inhibition (%)” value in the assay with protein denaturation worked out at 12.73 ± 0.18%. Also, in assay [1], the “TAC (mg Gallic Acid/g)” value was found to be 18.77 ± 0.21 mg Gallic Acid/g. In addition, the inhibition at 20 µg/mL on α-amylase was determined as 14.6 ± 0.2%. Further, the “α-Glucosidase IC50” value on α-glucosidase was 26.75 ± 0.52 µg/mL. In assay [2], the “H2O2 (%)” value was 9.37 ± 0.21% and the “H2O2 scavenging IC50” value was 62.92 ± 1.25 µg/mL. In the assay “ABTS radical scavenging”, the “ABTS (%)” value amounted to 18.52 ± 0.21% and the “ABTS radical scavenging IC50” value was determined as 17.47 ± 0.17 µg/mL. Further, in assay [3], the “NO (%)” value is given as 9.62 ± 0.21% and the “NO radical scavenging IC50” value came out at 42.12 ± 1.33 µg/mL. In [4], the “OH (%)” value amounted to 8.37 ± 0.19% and the “OH radical scavenging IC50” value was 56.57 ± 0.81 µg/mL. For the same compound, in [5], at 20 µg/mL the inhibition was 4.11 ± 0.13% and the IC50 was 176 µM. For the same compound, at proteinase enzyme, the “Proteinase IC50” value stood at 54.22 ± 0.58 µg/mL and the “Proteinase Inhibition (%)” value was 8.56 ± 0.18%. Also, the “IRP” value in [6] is 11.62 ± 0.21 µg/mL. Also, in “DPPH radical scavenging”, the “DPPH (%)” value came to 15.37 ± 0.21% and the “DPPH radical scavenging IC50” value came to 25.27 ± 0.54 µg/mL.

For `O=c1/c(=C\[C@H](O)[C@@H](O)[C@H](O)CO)sc2nc3sc4c(c3c(=O)n12)CCCC4` [8d, (E)-2-((2S,3R,4R)-2,3,4,5-tetrahydroxypentylidene)-6,7,8,9-tetrahydro-5H-benzo [4,5]thieno [2,3-d]thiazolo [3,2-a]-pyrimidine-3,5(2H)-dione], the “Protein Denaturation Inhibition (%)” value in the assay with protein denaturation was found to be 11.28 ± 0.18%. In assay [1], the “TAC (mg Gallic Acid/g)” value turned out to be 17.02 ± 0.21 mg Gallic Acid/g. The inhibition at 20 µg/mL at α-amylase was 13 ± 0.2%. Moreover, at α-glucosidase, the “α-Glucosidase IC50” value came to 33.99 ± 0.98 µg/mL. In [2], the “H2O2 (%)” value is listed as 7.66 ± 0.21% and the “H2O2 scavenging IC50” value came out at 77.03 ± 1.82 µg/mL. In the assay “ABTS radical scavenging”, the “ABTS (%)” value was 16.77 ± 0.21% and the “ABTS radical scavenging IC50” value is 19.31 ± 0.23 µg/mL. For the same compound, in assay [3], the “NO (%)” value is on record as 7.87 ± 0.21% and the “NO radical scavenging IC50” value stood at 51.52 ± 0.85 µg/mL. Moreover, in assay [4], the “OH (%)” value worked out at 6.84 ± 0.19% and the “OH radical scavenging IC50” value is recorded as 69.29 ± 2.28 µg/mL. In addition, in assay [5], the inhibition at 20 µg/mL was 5.61 ± 0.18% and the IC50 was 125 µM. At proteinase enzyme, the “Proteinase IC50” value was determined as 65.40 ± 1.90 µg/mL and the “Proteinase Inhibition (%)” value came to 7.11 ± 0.18%. Besides, the “IRP” value in [6] is reported as 9.87 ± 0.21 µg/mL. Moreover, in the assay “DPPH radical scavenging”, the “DPPH (%)” value worked out at 13.62 ± 0.21% and the “DPPH radical scavenging IC50” value was 28.53 ± 0.30 µg/mL.

As to `O=c1/c(=C\[C@H](O)[C@@H](O)[C@H](O)[C@H](O)CO)sc2nc3sc4c(c3c(=O)n12)CCCC4` [8a, (E)-2-((2S,3R,4R,5R)-2,3,4,5,6-pentahydroxyhexylidene)-6,7,8,9-tetrahydro-5H-benzo [4,5]thieno [2,3-d]thiazolo [3,2-a]-pyrimidine-3,5(2H)-dione], the “Protein Denaturation Inhibition (%)” value in the assay on protein denaturation is given as 8.74 ± 0.15%. Moreover, the “TAC (mg Gallic Acid/g)” value in assay [1] came out at 13.95 ± 0.18 mg Gallic Acid/g. The inhibition at 20 µg/mL on α-amylase amounted to 10.1 ± 0.17%. The “α-Glucosidase IC50” value at α-glucosidase came to 64.26 ± 2.84 µg/mL. In [2], the “H2O2 (%)” value worked out at 4.67 ± 0.17% and the “H2O2 scavenging IC50” value was found to be 126.37 ± 4.09 µg/mL. In addition, in the assay “ABTS radical scavenging”, the “ABTS (%)” value was 13.70 ± 0.18% and the “ABTS radical scavenging IC50” value is on record as 23.63 ± 0.28 µg/mL. Also, in assay [3], the “NO (%)” value worked out at 4.80 ± 0.18% and the “NO radical scavenging IC50” value is recorded as 84.51 ± 2.12 µg/mL. Further, in assay [4], the “OH (%)” value is 4.17 ± 0.15% and the “OH radical scavenging IC50” value came out at 113.71 ± 4.73 µg/mL. In [5], the inhibition at 20 µg/mL stood at 5.81 ± 0.18% and the IC50 is 112 µM. Moreover, at proteinase enzyme, the “Proteinase IC50” value was determined as 101.84 ± 3.59 µg/mL and the “Proteinase Inhibition (%)” value is 4.57 ± 0.15%. Also, the “IRP” value in [6] was found to be 6.80 ± 0.18 µg/mL. In “DPPH radical scavenging”, the “DPPH (%)” value was 10.55 ± 0.18% and the “DPPH radical scavenging IC50” value worked out at 36.82 ± 0.42 µg/mL.
